From patent publication US9328123B2, “Rotenone derivatives and a use thereof” (priority 2012, dated 2016)

Legend:
3T3-L1 preadipocytes = experiment: Inhibition of differentiation of 3T3-L1 preadipocyte to adipocyte (oil red O staining); format: cell-based, mouse; conditions: 3T3-L1 cell line, concentration of 2 μM
Method: To investigate inhibition effect on adipocyte differentiation in 3T3-L1 preadipocytes, mouse embryo fibroblasts were cultured in DMEM supplemented with 10% FBS to confluency. Two days later (Day 0), the cells were stimulated for the differentiation in DMEM, the differentiation medium supplemented with 10% FBS, 0.5 mM 3-isobutyl-1-methyl-xanthine, […], and […] (Day 2). For the next 6 days, the cells were cultured in DMEM supplemented with 10% FBS and 2 mM insulin (Day 8), followed by further culture in DMEM supplemented with 10% FBS for […] (Day 8). Every medium was added with 100 IU/ml of penicillin and […] of streptomycin. The cells were cultured in the presence of 95% air and 5% CO2. During the whole culture period (Day 0˜Day 8), the treatment of the rotenoisin A and B (2, 0.2, 0.02 uM) of the present invention was performed by the conventional method known to those in the art (Liu, Q.; Shin, E.; Ahn, M. J.; Hwang, B. Y.; Lee, M. K. Nat. Prod. Sci. 2011, 17, 212.) with slight modification. […]
Particularly, intracellular fat lump was stained with oil red O. 8 days after the induction of cell differentiation, the cells were washed with […] twice, followed by fixing in 10% formalin for 1 hour at room temperature. […] For quantitative analysis, oil red O was dissolved with isopropyl alcohol, followed by measuring OD500 using an ELISA reader.

pig pancreatic lipase = pig pancreatic lipase (Sus scrofa (Pig), UniProt P00591); experiment: Pancreatic lipase inhibiting activity (p-nitrophenylbutyrate hydrolysis); format: biochemical
Chain of pig pancreatic lipase (P00591 whole entry): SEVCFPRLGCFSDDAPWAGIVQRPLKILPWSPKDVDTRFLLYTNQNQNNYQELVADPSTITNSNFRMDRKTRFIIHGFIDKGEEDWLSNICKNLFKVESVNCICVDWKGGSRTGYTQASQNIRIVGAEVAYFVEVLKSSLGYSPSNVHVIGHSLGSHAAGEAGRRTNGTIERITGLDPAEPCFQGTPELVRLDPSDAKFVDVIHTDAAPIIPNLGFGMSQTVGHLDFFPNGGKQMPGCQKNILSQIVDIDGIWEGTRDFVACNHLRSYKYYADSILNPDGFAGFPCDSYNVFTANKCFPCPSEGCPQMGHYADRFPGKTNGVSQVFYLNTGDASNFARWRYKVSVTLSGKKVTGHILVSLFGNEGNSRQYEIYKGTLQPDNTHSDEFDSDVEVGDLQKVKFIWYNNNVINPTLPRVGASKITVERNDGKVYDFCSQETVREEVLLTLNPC
Method: To investigate obesity treating effect of the novel rotenoisin A and B, each represented by formula 2 and formula 3 isolated and purified in <Example 2>, pancreatic lipase inhibiting activity of the same was measured.
Particularly, pancreatic lipase inhibiting activity was measured by the conventional method known to those in the art (Kim, J. H.; Kim, H. J.; Park, H. W.; Youn, S. H.; Choi, D. Y.; Shin, C. S. FEMS Microbiol. Lett. 2007, 276, 93.). To prepare the enzyme buffer, […] (10 units) of pig pancreatic lipase solution (Sigma, St. Louis, Mo.) and 1 mM EDTA (pH 6.8) were mixed with 10 mM MOPS (morpholinepropanesulphonic acid), which was added to […] of tris buffer (100 mM Tris-HCl and 5 mM CaCl2, pH 7.0). Then, […] of the rotenoisin A or B of the present invention was mixed with the prepared enzyme buffer at the experimental concentration. […] 20 mL of substrate solution containing 20 mM p-nitrophenylbutyrate dissolved in dimethyl formaide was added to the enzyme buffer, followed by culture for 15 minutes at 37° C. that was the temperature adequate for enzyme reaction. Pancreatic lipase activity was measured by measuring the hydrolysis of p-nitrophenylbutyrate into p-nitrophenol using an ELISA reader (Infinite F200; Tecan Austria GmBH, Grodig, Austria).

SMILES	adipocyte differentiation inhibiting activity (3T3-L1 preadipocytes; Day 8)	inhibition at 2 µM (3T3-L1 preadipocytes; Mus musculus, 192 h, Day 8, read-out: adipocyte differentiation inhibiting activity) [%]	IC50 (pig pancreatic lipase) [µM]
C=C(C)[C@H]1Cc2c(ccc3c2O[C@@H]2COc4cc(OC)c(OC)cc4[C@@H]2C32CO2)O1 (some centres unmarked) [rotenoisin A]	approximately 70%	~70	6.3 ± 0.3
C=C(C)[C@H]1Cc2c(ccc3c2O[C@@H]2COc4cc(OC)c(OC)cc4[C@@H]2[C@]32CC3O[C@]3(O)[C@@H](O)O2)O1 (some centres unmarked) [rotenoisin B]	–	–	28.4 ± 1.2
C=C(C)[C@H]1Cc2c(ccc3c2O[C@@H]2COc4cc(OC)c(OC)cc4[C@@H]2C3=O)O1 [rotenone]	–	–	> 500
